Results: ChEMBL document CHEMBL1157539, “Thousands of chemical starting points for antimalarial lead identification” (Nature, 2010)

System: Plasmodium falciparum
Assay: GSK_TCMDC: Inhibition of Plasmodium falciparum 3D7 in whole erythrocytes, using parasite LDH activity as an index of growth.
Type: functional, organism-based
Conditions: not given

| SMILES | XC50 [nM] |
| --- | --- |
| COc1ccc(C=CC(=O)NC2CCC(CN3CCC(c4c[nH]c5ccccc45)CC3)CC2)cc1 (stereo unspecified) | 807 |

Same assay, conditions: Plasmodium falciparum, 3D7

| SMILES | XC50 [nM] |
| --- | --- |
| COc1ccc(-c2nc(NC(=O)Cc3cccc(OC)c3)sc2C)cc1 | 237 |
| O=C(Nc1cccc(CN2CCCN(CC3CCCCC3)CC2)c1)c1cc2ccccc2s1 | 814 |
| CCCCCCNC(=O)C1Cc2c([nH]c3ccc(F)cc23)C2(CCN(Cc3ccccc3)CC2)N1 (stereo unspecified) | 871 |
| COc1ccc(Cl)cc1N1CCN(CCCNC(=O)c2ccc(-c3nc4cc(Cl)c(C)cc4[nH]3)s2)CC1 | 776 |
| O=C(Cc1cccc(O)c1)NCC(Cc1ccc(O)cc1)c1ccccc1 (stereo unspecified) | 643 |
| CC(C)N1CCC(N(Cc2ccc(-c3ccc(C(F)(F)F)cc3)cc2)C(=O)Cn2c(CCc3cccc(F)c3F)cc(=O)c3cn(C)nc32)CC1 | 1170 |
| CC(C)n1c(C2CCN(CC3CCN(C(=O)/C=C/c4ccc(Cl)c(Cl)c4)CC3)CC2)nc2ccccc21 | 1030 |
| Oc1ccc(CCNCCCCCCNCCc2ccc(Cl)c3ccccc23)cc1O | 716 |
| O=C(NC1CCC(N2CCN(c3cccc(C(F)(F)F)c3)CC2)CC1)c1cc2ccccc2[nH]1 (stereo unspecified) | 723 |
| COc1ccc2nccc([C@@H](O)CN3CCC(NCc4cc5cc(OC(F)(F)F)ccc5[nH]4)CC3)c2c1 | 127 |
| COc1ccc(C2N=C(N)N=C(N)N2c2ccc(Cl)cc2)cc1OC (stereo unspecified) | 1000 |
| CO/C(=C\C=C\c1cc2cc(Cl)c(Cl)cc2[nH]1)C(=O)Nc1ccc(NCCN(C)C)nc1 | 765 |
| COC(=O)c1cccc(CNCc2ccc(-c3cccc(-c4nc5cc(C(F)(F)F)ccc5[nH]4)c3)cc2)c1 | 156 |
| COc1cc(CCCOc2c(N)nc(N)nc2N)cc(OC)c1OC | 1220 |
| N=C(N)c1ccc(NN=Cc2ccc(Oc3ccc(C(=N)N)cc3)cc2)cc1 | 90.2 |
| CC(C)CCNC(=O)[C@@H]1[C@H]2C(=O)N(C3CCCCC3)C(=O)[C@H]2[C@H]2C=C[C@@H]3C(c4ccc(C(C)(C)C)cc4)=NO[C@@H]3N21 | 788 |
| Cc1cnn(-c2cccc(C(=O)NC3CCC(CCN4CCc5ccc(C#N)cc5CC4)CC3)c2)c1 (stereo unspecified) | 932 |
| CCCCOc1c(CCNCCCCNCCc2cc(OC)c3ccccc3c2OCCCC)cc(OC)c2ccccc12 | 925 |
| CNC(=O)c1cnc(Nc2ccc(OCC(O)CN(C)C)cc2)nc1Nc1cccc(OC)c1 (stereo unspecified) | 319 |
| COc1ccc2nccc([C@@H](O)CN3CCC(NC(=O)/C=C/c4cccc(C)c4)CC3)c2c1 | 1250 |
| O=C(Nc1ccc(Cn2ncc(N3CCCNCC3)c(Cl)c2=O)cc1)Nc1cc(F)cc(C(F)(F)F)c1 | 767 |
| Cc1cccc2nc(-c3ccc(-c4cccc(NC(=O)NCc5ccccc5)c4)cc3)[nH]c12 | 777 |
| c1ccc(CN2CCC(NCc3ccc(-c4cccc(CNC5CCCC5)c4)cc3)CC2)cc1 | 339 |
| COc1ccc(NC(=O)Nc2cc(C)nc3ccccc23)cc1Cl | 688 |

| SMILES | XC50 [nM] |
| --- | --- |
| COc1cc(C(F)(F)F)cc2[nH]c(CNCCCNc3nc4ccccc4[nH]3)cc12 | 280 |
| O=C(c1ccc(Cl)cc1Cl)N1CCCC(C(F)(F)F)C1 (stereo unspecified) | 952 |
| NC(=O)c1cccc(Nc2nccc(Nc3ccc(Oc4ccc5ccccc5c4)cc3)n2)c1 | 810 |
| CCOc1cc(C)ccc1C1CCN(CCCCNC(=O)c2ccc(-c3ccc(C(F)(F)F)cn3)cc2)CC1 | 787 |
| COc1c(CNCCCCCCNCc2cc(Cl)c3ccccc3c2OC)cc(Cl)c2ccccc12 | 937 |
| COc1cc(CN2CCC(NC(=O)[C@H](Cc3ccccc3)NC(=O)Nc3ccc(Oc4ccccc4)cc3)C2)ccc1O (stereo partly specified) | 810 |
| N#Cc1cccc(Nc2nccc(Nc3ccc(Oc4ccccc4)cc3)n2)c1 | 830 |
| CCCCNc1nc(NCCCC)c2c(C)c(Cc3ccccc3)c(NCCCC)nc2n1 | 889 |
| COc1cc2nc(N3CCC(CNC(=O)/C=C/c4cccc(C)c4)CC3)nc(N)c2cc1OC | 684 |
| O=C(Nc1ccc(F)c(C(F)(F)F)c1)NC1CCN(CCCCCNC(=O)C2CC2c2ccc(Cl)c(Cl)c2)CC1 (stereo unspecified) | 663 |
| CC(=O)Nc1cccc(Nc2nccc(Nc3ccc(Oc4ccccc4)cc3)n2)c1 | 745 |
| COc1cc(Nc2ccnc3ccc(C(F)(F)F)cc23)ccc1OCCCc1ccccc1 | 765 |
| CN1CCC(C(=O)N(Cc2ccc(-c3ccc(CNCCc4ccccc4)cn3)cc2)C2CCN(Cc3ccccc3)CC2)CC1 | 787 |
| O=C(NC1CCCc2ccccc21)C1CCCN(C(=O)c2ccc(O)c(-c3ccc(Cl)c(Cl)c3)c2)C1 (stereo unspecified) | 1140 |
| COc1ccc2nccc([C@@H](O)CN3CCC(NC(=O)/C=C/c4ccnc5ccccc45)CC3)c2c1 | 939 |
| CCOc1ccc(-n2nc3c(Cl)nnc(-c4ccccc4)c3c2-c2ccccc2)cc1 | 226 |
| Fc1ccc(-c2cc3ncnc(N4CCN(CCN5CCCC5)CC4)c3s2)cc1 | 740 |
| O=C(NC1CCN(CCN2CCc3ccccc3CC2)CC1)c1ccc(-c2ccc(C(F)(F)F)cc2)cc1 | 935 |
| CCNc1cc(C)nc(Nc2ccc(F)cc2)n1 | 798 |
| COc1ccc(C=Cc2ccc(-c3c(C)[nH]c(C)c(Cl)c3=O)cc2)cc1OC | 283 |
| N=C(N)NN=CC(=O)Nc1ccc(Cl)cc1 | 814 |
| COc1ccc(C=CC(=O)NC2CCC(CN3CCC(c4c[nH]c5ccccc45)CC3)CC2)cc1 (stereo unspecified) | 782 |
| Cc1ccc(-c2nc3cc(C(=O)NC4CCC(N5CCCc6ccc(C#N)cc6C5)CC4)ccc3[nH]2)cc1 (stereo unspecified) | 1360 |
| N#Cc1cccc(C(=O)N2CCOC(CCN3CCC(c4ccccc4)CC3)(c3ccc(Cl)c(Cl)c3)C2)c1 (stereo unspecified) | 1040 |

| SMILES | XC50 [nM] |
| --- | --- |
| COc1cc2c(cc1OC)CC(NCCCCCCNCCc1ccc(Cl)cc1)CC2 (stereo unspecified) | 738 |
| Cc1cccc(-n2nc(C)c3c2NC(=O)CC3C(=O)c2ccc(Cl)s2)c1 (stereo unspecified) | 466 |
| Nc1nc(N)c(-c2ccccc2)c(=O)[nH]1 | 1000 |
| Cc1c(-c2cccc(C(C)(C)NCCCN3CCCCC3)c2)cnc(N)c1C | 938 |
| COc1cc(OC)cc(-c2nn(-c3ccc([N+](=O)[O-])cc3C#N)c(=S)n2CC2CCCO2)c1 (stereo unspecified) | 852 |
| O=C(/C=C/c1ccc(Cl)c(Cl)c1)NCCCCCN1CC[C@H](NC(=O)c2sc3ccccc3c2Cl)C1 | 809 |
| COc1ccc(-c2cnc3[nH]cc(-c4ccncc4)c3c2)cc1OC | 126 |
| Brc1cc2c(cc1C=NNc1nc(=Nc3ccccc3)[nH]c(=Nc3ccccc3)[nH]1)OCO2 | 798 |
| Clc1cc(Nc2ccnc3ccc(Br)cc23)ccc1Oc1ccc(Cl)c2ccccc12 | 634 |
| Cc1ccc2nc3sc(C(=O)NCCCN4CCC(N5CCCCC5)CC4)cc3cc2c1 | 675 |
| COc1ccc(Br)cc1C1C2C(=O)N(c3ccc(Br)cc3)C(=O)C2C2(C(=O)O)CC(OCc3ccccc3)CN12 (stereo unspecified) | 195 |
| CCNc1cc(C(=O)N[C@@H](Cc2ccccc2)[C@H](O)CNC(CC)c2cccc(Cl)c2)cc(N2CCCCS2(=O)=O)c1 (stereo partly specified) | 51.7 |
| COc1cccc(C(=O)Nc2ccc(Nc3nc(C)cc(N(C)C)n3)cc2)c1 | 940 |
| CNc1ccc(CNCc2ccc(-c3ccc(-c4nc5cccc(C)c5[nH]4)s3)cc2)cc1 | 661 |
| Cc1cc(C)n(-c2nc(Nc3cccc(C(F)(F)F)c3)nc(-n3nc(C)cc3C)n2)n1 | 362 |
| CNC(=O)CNC(=O)COc1cccc2ccccc12 | 226 |
| CCCCCCCCCCS(=O)(=O)N[C@H](COCc1cccc(Oc2ccccc2)c1)COP(=O)(O)OC | 1020 |
| CC[C@H]1CN(Cc2cccc(O)c2)CC[C@H]1CCCc1ccnc2ccc(O)cc12 | 534 |
| Cc1cc(N2CCCC2)nc(Nc2ccc(NC(=O)c3ccc4c(c3)OCO4)cc2)n1 | 815 |
| COc1ccccc1N(C)CCNc1cc(C)nc(Nc2ccc(C)cc2)n1 | 1570 |
| CCn1c(Sc2ccc([N+](=O)[O-])c(C#N)c2)nnc1-c1cccc(Cl)c1 | 873 |
| COc1cc(NC(=O)c2c(-c3c(Cl)cccc3Cl)noc2C)c(OC)cc1Cl | 916 |
| CCCOc1cccc(C(=O)N[C@@H](Cc2ccccc2)[C@H](O)CNCc2cccc(OC)c2)c1 | 741 |
| N#Cc1ccc(-c2cnc3ccc(NCCc4cccnc4)nn23)cc1 | 255 |

| SMILES | XC50 [nM] |
| --- | --- |
| Cc1ccccc1C1CCN(C2CCC(NC(=O)C3=Cc4ccccc4OC3)CC2)CC1 (stereo unspecified) | 935 |
| O=S(=O)(Nc1cc2c(cc1O)CCNCC2)c1ccc(-c2ccc(Cl)cc2)cc1 | 980 |
| COc1cc(Cc2cnc(N)nc2N)c2c(c1OC)OC(C)(C)C=C2 | 1190 |
| CC(C)COc1ccc(Cl)cc1Cc1ccc(-c2nc3c(F)cccc3[nH]2)o1 | 806 |
| Cc1c(C)c2c(c(C)c1O)CC[C@@](C)(C(=O)NC1CCC(CN3CCC(c4c[nH]c5ccccc45)CC3)CC1)O2 (stereo partly specified) | 965 |
| COc1cccc(CCNCc2ccc(-c3cccc(CNC4CCCC4)c3)cc2)c1 | 734 |
| Cc1nc(N)nc(N)c1OCCCCCCOc1ccccc1 | 235 |
| CC(=O)Nc1ncc(C(=O)Nc2cccc(-c3cccc(-c4nc5cc(F)ccc5[nH]4)c3)c2)s1 | 454 |
| CCCCCCCCS(=O)(=O)NCCCC1CCN(CCCCCNC(=O)C=Cc2ccc(Cl)c(Cl)c2)CC1 | 858 |
| Cn1ccnc1CNC(=O)c1ccc(-c2cccc(-c3nc4cc(C(F)(F)F)ccc4[nH]3)c2)cc1 | 723 |
| O=C(COc1ccc(Cl)c(Cl)c1)NCCCCCN1CCCN(C(=O)Nc2ccc(Cl)c(Cl)c2)CC1 | 1730 |
| CC(=O)N[C@H](C(=O)Nc1ccc(-c2ccc(-c3nc4cc(C(F)(F)F)ccc4[nH]3)s2)cc1)C(C)C | 1030 |
| Cc1ccc(-c2ccc3c(c2)C=C(C(=O)NCC2CCN(CC4CCN(C(=O)/C=C/c5ccc(Cl)c(Cl)c5)CC4)CC2)CCC3)cc1 | 777 |
| Cc1cc(N[C@@H](Cc2ccccc2)C(=O)NCc2cccs2)nc(NCCc2ccccc2)n1 | 790 |
| COc1cccc(NC(=O)c2ccc(NCCCN3CC(C)CC(C)C3)c([N+](=O)[O-])c2)c1 (stereo unspecified) | 721 |
| COc1ccc2nccc([C@@H](O)CN3CCC(NC(=O)Cc4cc5ccccc5s4)CC3)c2c1 | 906 |
| COc1ccc(-c2ccc(NC(=O)c3cccc(Cl)c3)cc2)cc1CN1CCCN(C)CC1 | 603 |
| O=C(CCc1cccnc1)Nc1ccc(-c2cccc(-c3nc4cc(F)ccc4[nH]3)c2)cc1 | 922 |
| COc1ccccc1CN1CCC(CNC(=O)c2cc(-c3cccc(C(F)(F)F)c3)cs2)C1 (stereo unspecified) | 1310 |
| O=C(NC1CC1c1ccccc1)N(CCCn1ccnc1)Cc1csc(-c2ccc(CNCc3ccccc3)cc2)n1 (stereo unspecified) | 854 |
| C(=N\Nc1nccc2sc(-c3cccnc3)cc12)/c1ccncc1 | 213 |
| Cc1nc(-c2ccc(-c3ccc(NC(=O)c4coc5ccc(N6CC(C)N(C)C(C)C6)cc45)cc3)c(C)c2)no1 (stereo unspecified) | 767 |
| CCN(CC)C(=O)C1CCCN(c2cc(C)nc(Nc3ccc(Cl)cc3)n2)C1 (stereo unspecified) | 718 |
